The results in this text go back to patent US7375098B2, “8β-vinyl-11β-(ω-substituted)alkyl-estra-1,3,5(10)-trienes” (Schering A.G., priority 2003, dated 2008).

Series [1] has as its target T1, ERα (Homo sapiens, UniProt P03372).
T1 construct: pSG5-ERα/β FL (Heg0/ERβ0); expressed in transfected cells; host or cells: U-20S (U-2 OS) cells, transient transfection with FuGENE 6
T1 sequence (P03372 1-595): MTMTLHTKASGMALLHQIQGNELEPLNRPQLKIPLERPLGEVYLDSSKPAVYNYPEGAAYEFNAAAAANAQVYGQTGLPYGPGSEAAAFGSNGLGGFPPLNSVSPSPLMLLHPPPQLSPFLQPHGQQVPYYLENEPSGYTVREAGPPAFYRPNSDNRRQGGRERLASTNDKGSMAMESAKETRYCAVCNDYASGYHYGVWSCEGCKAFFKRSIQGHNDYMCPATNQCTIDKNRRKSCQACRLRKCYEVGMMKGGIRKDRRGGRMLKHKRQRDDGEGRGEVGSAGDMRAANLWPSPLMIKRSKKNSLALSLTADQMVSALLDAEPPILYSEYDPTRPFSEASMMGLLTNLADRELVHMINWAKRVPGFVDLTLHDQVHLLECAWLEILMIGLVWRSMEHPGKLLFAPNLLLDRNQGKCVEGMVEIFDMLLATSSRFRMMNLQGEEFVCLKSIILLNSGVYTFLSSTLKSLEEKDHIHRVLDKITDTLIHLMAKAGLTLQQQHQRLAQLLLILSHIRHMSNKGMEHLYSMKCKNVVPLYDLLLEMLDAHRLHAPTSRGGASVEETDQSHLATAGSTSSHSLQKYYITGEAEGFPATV
Nature of the series: Transactivation test for estrogenic agonists and antagonists, ERα, U-20S cells, luciferase reporter. Type of series: cell-based. The note with it: U-20S cells. Here is the method: (§1) Transactivation Test for Estrogenic Agonists and Antagonists Cultivation of Cells:
(§2) The resuspension of the cells is carried out in 10 ml of D-MEM+5% CCS+PSG.
(§3) Dissemination of 100 μl of cell suspension (1×10^4 cells) per well. 6 hours after the dissemination, the transfection takes place.
(§4) The ERβα-expression plasmid (HEGO) that was used was amplified in E. coli DH5α (Invitrogen Company). The ERβ-expression plasmid (ERβ0) that was used was produced in-house and amplified in E. coli DH5α. As in the case of the ERα, the expression plasmid pSG5 was used. As a reporter plasmid, the vector pBL-LUC^+ was provided with two Tandem-EREs (estrogen-responsive elements of the vitellogenin promoter) and amplified in E. coli (XL1-Blue; Stratagene Company).
(§5) The latter are first diluted separately in a suitable volume of DMEM and incubated, before the solutions are combined and again incubated.
(§6) Incubation of solutions A and B for 5 minutes at room temperature (RT). Then solution B to be added drop by drop to solution A and mixed. Incubation of solution AB for 15 minutes at room temperature.
(§7) Dilution of the transfection mixture AB for 4 plates with 22.5 ml of D-MEM+5% CCS+PSG. […] Only 60 wells are transfixed per plate; the outside wells receive only medium.
(§8) The 10^−3M DMSO solutions are stored at −20° C. and must be readily dissolved before the removal (15 minutes, 37° C.).
(§9) The dilution stages are selected such that the final concentrations on the test plate for agonism lie in the range of 10^−7-10^−12M (for E2: 10^−8-10^−13M).
(§10) All dilution stages thus contain 1% DMSO.
(§11) After the transfection, the transfection medium is replaced by 180 μl of D-MEM+5% CCS+PSG per well.
(§12) To test for antagonism, the cells are treated in addition with estradiol. Then, 20 μl of the substance dilutions is pipetted through. The negative controls receive 20 μl of DMEM+1% DMSO per well. The final test substance concentrations are 3×10^−11 M for ERα or 3×10^−10 M for ERβ.
(§13) After the medium is suctioned off, in each case 30 μl of lysis 1× reagent (Promega; #E1531) is added to the cells and incubated for ½ hour-1 hour at room temperature while being shaken vigorously (IKA-VIBRAX-VXR, 600 rpm).
(§14) The evaluation of the measurement data is carried out by means of software assigned by the equipment manufacturer (BioLinx). […] A calculation of EC50, the efficacy and the EMR value for the agonism or the IC50 and the efficacy for the antagonism is possible by means of “MTS” software (Table 2).
A general note: In a reporter assay the amount or activity of a reporter protein is the signal.

A short description of series [2]: Solubility Sw (turbidimetry). To be noted: pH 7.4 at 25° C.
Series [3] deals with T2, ERβ (Homo sapiens, UniProt Q92731).
T2 construct: pSG5-ERα/β FL (Heg0/ERβ0); expressed in transfected cells; host or cells: U-20S (U-2 OS) cells, transient transfection with FuGENE 6
The series is described as follows: Transactivation test for estrogenic agonists and antagonists, ERβ, U-20S cells, luciferase reporter. Type of series: cell-based. Here is the method: as §1, §2, §3, §4, §5, §6, §7, §8, §9, §10, §11, §12, §13, §14

Series [4] is described as follows: Distribution coefficient log D (HPLC method).

As a reminder, the chromatographic logD is lipophilicity estimated from chromatographic retention. A higher chromatographic logD goes with a more lipophilic compound. A word on the Log D: it is the decadic logarithm of the distribution of all forms, ionised or not, between an organic phase and buffer at a given pH.

The structures appear in SMILES notation.

T2 sequence (Q92731 whole entry, species assumed): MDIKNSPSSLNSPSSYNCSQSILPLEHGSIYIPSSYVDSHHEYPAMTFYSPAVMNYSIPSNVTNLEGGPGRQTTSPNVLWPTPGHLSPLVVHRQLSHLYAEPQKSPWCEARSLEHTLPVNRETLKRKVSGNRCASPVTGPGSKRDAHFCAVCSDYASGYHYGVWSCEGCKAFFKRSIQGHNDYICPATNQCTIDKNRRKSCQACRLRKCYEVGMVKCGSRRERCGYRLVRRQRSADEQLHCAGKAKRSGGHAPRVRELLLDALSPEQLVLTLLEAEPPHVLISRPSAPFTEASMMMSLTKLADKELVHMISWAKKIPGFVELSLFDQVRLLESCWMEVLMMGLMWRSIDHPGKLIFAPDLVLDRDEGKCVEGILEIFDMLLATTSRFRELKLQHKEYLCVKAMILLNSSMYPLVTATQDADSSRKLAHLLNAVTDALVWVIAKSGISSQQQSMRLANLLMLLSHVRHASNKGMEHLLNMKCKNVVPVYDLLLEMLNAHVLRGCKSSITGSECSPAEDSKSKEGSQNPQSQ

On to `C=C[C@@]12CCc3cc(O)ccc3C1[C@@H](CCCCC[C@H](O)C(F)(F)C(F)(F)C(F)(F)F)C[C@@]1(C)C2CC[C@@H]1O` (mixture of isomers) [22b D1/2, 11β-[(R/S)-9,9,9,8,8,7,7-Heptafluoro-6-hydroxynonyl]-8-vinyl-estra-1,3,5(10)-triene-3,17β-diol], for which the “Efficacy[%] ERα” value in series [1] (luciferase activity) came out at 90%. Moreover, the “EMR (EC50 )[%] ERα” value in series [1] (potency relative to reference fulvestrant = 100) was found to be 1.6%. Also, in series [2], the Sw turned out to be 7 mg/I. In addition, the “EMR (EC50 )[%] ERβ” value in series [3] (U-20S cells, potency relative to reference = 100) was determined as 29%. Further, the Emax in series [3] (read-out: Efficacy[%] ERβ) amounted to 100%. Besides, in series [4] (pH 7), the chromatographic logD was 5.1.

Turning to `C[C@]12CC[C@@H]3c4ccc(O)cc4C[C@@H](CCCCCCCCC[S+]([O-])CCCC(F)(F)C(F)(F)F)[C@H]3[C@@H]1CC[C@@H]2O` (some centres unmarked) [Ref.^1, fulvestrant, reference compound], in series [2], the Sw is less than 1 mg/I. The “Log D” value in series [4] (HPLC method, pH: 7.0, 25° C.) is 5.31.
